Experimental data as given in BindingDB's records for doi:10.1021/jm100157m (University of Arizona, 2010).

Assay: Agonist activity at mu opioid receptor in guinea pig ileum assessed as inhibition of electrically-stimulated muscle contraction

With `CSCC[C@H](NC(=O)[C@H](Cc1ccccc1)NC(=O)CNC(=O)[C@@H](C)NC(=O)[C@@H](N)Cc1ccc(O)cc1)C(=O)N1CCC[C@H]1C(=O)N[C@@H](CC(C)C)C(=O)N[C@@H](Cc1c[nH]c2ccccc12)C(=O)NCc1cc(C(F)(F)F)cc(C(F)(F)F)c1` [Tyr-D-Ala-Gly-Phe-Met-Pro-Leu-Trp-NH-3,5-Bzl(CF 3) 2] the IC50 was 420 nM.
